Experimental data from paper PMC8144490, “Synthesis and Cytotoxic Activity of Novel Indole Derivatives and Their in silico Screening on Spike Glycoprotein of SARS-CoV-2” (Frontiers in Molecular Biosciences, 2021).
Read-outs that look alike come from different tables or passages of the source.

How the values were obtained:
Format in all cases: cell-based
[1] = system: human embryonic kidney cells (HEK-293); assay: In vitro cytotoxicity on normal cells, MTT assay, HEK-293; details: HEK293, HEK-293 normal kidney cells
Procedure: (§1) The newly prepared compounds 1a–1j are examined for their cytotoxic activity according to the United States NCI protocol, which was a previously reported method ([Chadha and Silakari, 2017]). The 50% growth inhibition (GI50), tumor growth inhibition (TGI), and lethal concentration (LC50) values were determined. […] Doxorubicin was used as a standard drug. None of the tested derivatives had shown significant activity toward the cancer cell lines. The compounds were also evaluated for their possible cytotoxicity in human embryonic kidney cells (HEK-293), lung cells (MRC-5), and liver cells (LO2) by employing MTT assay. […] The results of cytotoxic screening of compounds (1a–1j) are shown in Table 2, and in vitro cytotoxicity of indole derivatives (1a–1j) on normal cells are shown in Table 3.
(§2) None of the tested derivatives had shown significant activity toward the cancer cell lines. The compounds were also evaluated for the possible cytotoxicity in human embryonic kidney cells (HEK-293), lung cells (MRC5), and liver cells (LO2) by employing MTT assay.

[2] = system: HeLa (Cervical) cancer cell line; assay: Cytotoxic activity (United States NCI protocol), HeLa; details: Homo sapiens; for IC (TGI): read-out: TGI
Procedure: (§3) The cytotoxicity experiment was performed according to the United States NCI protocol, previously reported method. A detailed experimental procedure was given in Supplementary Material ([Premnath et al., 2015]).
as §1

[3] = system: HepG2 (Liver) cancer cell line; assay: Cytotoxic activity (United States NCI protocol), HepG2; details: Homo sapiens
Procedure: as §3, §1

[4] = system: MCF-7 (Breast) cancer cell line; assay: Cytotoxic activity (United States NCI protocol), MCF-7; details: Homo sapiens; for GI50: 50% growth inhibition; for IC (TGI): tumor growth inhibition
Procedure: as §3, §1

liver cells (LO2) = assay: In vitro cytotoxicity on normal cells, MTT assay, LO2
Procedure: as §1, §2

lung cells (MRC5) = assay: In vitro cytotoxicity on normal cells, MTT assay, MRC5; details: Homo sapiens
Procedure: as §1, §2

[5] = 50% growth inhibition, read-out: GI50
[6] = lethal concentration, read-out: LC50 (the source's name)
[7] = HepG2, lethal concentration, read-out: LC50
[8] = HepG2, tumor growth inhibition, read-out: TGI
[9] = MCF7, MCF-7, lethal concentration, read-out: LC50 (the source's name)

`C(=N\NC(c1ccccc1)n1ccc2ccccc21)/c1ccco1` (centres unmarked) [Compound 1a] gave an IC50 [1] of 70.1 µM, a CC50 ([2]; read-out: LC50) of 100 µM and a GI50 ([3]; HepG2) of 43.2 µM. It also gave an LC50 (NCI lethal concentration 50%) ([3]; HepG2, read-out: LC50) greater than 100 µM, an IC (TGI) ([3]; HepG2, read-out: TGI) of 78.3 µM and a CC50 ([4]; MCF7, read-out: LC50) greater than 100 µM. The IC50 (liver cells (LO2)) was 67.5 µM and the IC50 (lung cells (MRC5)) was 76.4 µM.

`O=[N+]([O-])c1cccc(C(N/N=C/c2ccco2)n2ccc3ccccc32)c1` (centres unmarked) [Compound 1b] was tested, and the IC50 [1] was 62.1 µM, the GI50 [2, 5] was 51 µM and the CC50 [2, 6] was greater than 100 µM. The IC (TGI) ([2]; tumor growth inhibition) was 89.2 µM, the GI50 ([3]; HepG2) was 42.2 µM and the LC50 (NCI lethal concentration 50%) [3, 7] was 56.8 µM. For the same compound, the IC (TGI) [3, 8] was 23.1 µM, the GI50 ([4]; MCF7, MCF-7) was 46.1 µM and the CC50 [4, 9] was greater than 100 µM. It also gave an IC (TGI) ([4]; MCF7, MCF-7) of 85.1 µM, an IC50 (liver cells (LO2)) of 72.2 µM and an IC50 (lung cells (MRC5)) of 67.2 µM.

`Oc1ccc(C(NN=Cc2ccco2)n2ccc3ccccc32)cc1` (centres unmarked) [Compound 1c] showed an IC50 [1] of 81.1 µM, a GI50 [2] of 41.3 µM and a CC50 ([2]; read-out: LC50) of 0.5 µM. The IC (TGI) [2] was 87.2 µM, the GI50 ([3]; HepG2) was 36.3 µM and the LC50 (NCI lethal concentration 50%) ([3]; HepG2, read-out: LC50) was 0.9 µM. For the same compound, the IC (TGI) ([3]; HepG2, read-out: TGI) was 65.3 µM, the CC50 ([4]; MCF7, read-out: LC50) was 0.55 µM and the IC50 (liver cells (LO2)) was 87.1 µM. The IC50 (lung cells (MRC5)) was 86.7 µM.

Compound `Clc1ccc(C(N/N=C/c2ccco2)n2ccc3ccccc32)cc1` (centres unmarked) [Compound 1d] has an IC50 [1] of 79.1 µM, a GI50 [2, 5] of 8.9 µM and a CC50 [2, 6] of 0.5 µM. For the same compound, the IC (TGI) ([2]; tumor growth inhibition) was 6.8 µM, the GI50 ([3]; HepG2) was 1 µM and the LC50 (NCI lethal concentration 50%) [3, 7] was 54 µM. It also gave an IC (TGI) [3, 8] of 0.25 µM, a GI50 ([4]; MCF7, MCF-7) of 0.89 µM and a CC50 [4, 9] of 65 µM. For the same compound, the IC (TGI) ([4]; MCF7, MCF-7) was 9.3 µM, the IC50 (liver cells (LO2)) was 66.2 µM and the IC50 (lung cells (MRC5)) was 56.2 µM.

In the case of `COc1ccc(C(N/N=C/c2ccco2)n2ccc3ccccc32)cc1` (centres unmarked) [Compound 1e], the IC50 [1] is reported as 57.1 µM, the GI50 [2, 5] is reported as 34.2 µM and the CC50 [2, 6] is reported as greater than 100 µM. It also gave an IC (TGI) ([2]; tumor growth inhibition) of 72.1 µM, a GI50 ([3]; HepG2) of 15.9 µM and an LC50 (NCI lethal concentration 50%) [3, 7] of 44.8 µM. For the same compound, the IC (TGI) [3, 8] was 38.2 µM, the GI50 ([4]; MCF7, MCF-7) was 24.4 µM and the CC50 [4, 9] was 66.3 µM. It also gave an IC (TGI) ([4]; MCF7, MCF-7) of 59.3 µM, an IC50 (liver cells (LO2)) of 56 µM and an IC50 (lung cells (MRC5)) of 72.8 µM.

Compound `Oc1ccccc1C(N/N=C/c1ccco1)n1ccc2ccccc21` (centres unmarked) [Compound 1f] has an IC50 [1] of 66.2 µM, a GI50 [2, 5] of 21.6 µM and a CC50 [2, 6] of 77.4 µM. The IC (TGI) ([2]; tumor growth inhibition) was 54.7 µM, the GI50 ([3]; HepG2) was 29.1 µM and the LC50 (NCI lethal concentration 50%) [3, 7] was 57.5 µM. The IC (TGI) [3, 8] was 46.8 µM, the GI50 ([4]; MCF7, MCF-7) was 18.6 µM and the CC50 [4, 9] was 42.3 µM. The IC (TGI) ([4]; MCF7, MCF-7) was 41.8 µM, the IC50 (liver cells (LO2)) was 68.2 µM and the IC50 (lung cells (MRC5)) was 51.2 µM.

For `COc1cc(C(N/N=C/c2ccco2)n2ccc3ccccc32)ccc1O` (centres unmarked) [Compound 1g], the IC50 [1] was 58.2 µM, the GI50 [2, 5] was 37.9 µM and the CC50 [2, 6] was 58.9 µM. It also gave an IC (TGI) ([2]; tumor growth inhibition) of 51.9 µM, a GI50 ([3]; HepG2) of 48 µM and an LC50 (NCI lethal concentration 50%) [3, 7] of 59.3 µM. It also gave an IC (TGI) [3, 8] of 61.3 µM, a GI50 ([4]; MCF7, MCF-7) of 34 µM and a CC50 [4, 9] of 30.5 µM. The IC (TGI) ([4]; MCF7, MCF-7) was 67.4 µM, the IC50 (liver cells (LO2)) was 70.5 µM and the IC50 (lung cells (MRC5)) was 62.6 µM.

`CN(C)c1ccc(C(N/N=C/c2ccco2)n2ccc3ccccc32)cc1` (centres unmarked) [Compound 1h] showed an IC50 [1] of 67 µM, a GI50 [2, 5] of 52.9 µM and a CC50 [2, 6] greater than 100 µM. For the same compound, the IC (TGI) ([2]; tumor growth inhibition) was 81.3 µM, the GI50 ([3]; HepG2) was 21.3 µM and the LC50 (NCI lethal concentration 50%) [3, 7] was 72.1 µM. For the same compound, the IC (TGI) [3, 8] was 41 µM, the GI50 ([4]; MCF7, MCF-7) was 12.9 µM and the CC50 [4, 9] was 10.3 µM. For the same compound, the IC (TGI) ([4]; MCF7, MCF-7) was 45.3 µM, the IC50 (liver cells (LO2)) was 58.2 µM and the IC50 (lung cells (MRC5)) was 66.3 µM.

`C(=N\NCn1ccc2ccccc21)/c1ccco1` [Compound 1j] showed an IC50 [1] of 52.7 µM, a GI50 [2, 5] of 2.3 µM and a CC50 [2, 6] of 48.3 µM. The IC (TGI) ([2]; tumor growth inhibition) was 58.3 µM, the GI50 ([3]; HepG2) was 40.3 µM and the LC50 (NCI lethal concentration 50%) [3, 7] was 66.8 µM. It also gave an IC (TGI) [3, 8] of 45.3 µM, a GI50 ([4]; MCF7, MCF-7) of 56 µM and a CC50 [4, 9] of 78.6 µM. It also gave an IC (TGI) ([4]; MCF7, MCF-7) of 49.3 µM, an IC50 (liver cells (LO2)) of 70.1 µM and an IC50 (lung cells (MRC5)) of 75.1 µM.

For `COc1cccc2c1C(=O)c1c(O)c3c(c(O)c1C2=O)C[C@@](O)(C(=O)CO)C[C@@H]3O[C@H]1C[C@H](N)[C@H](O)[C@H](C)O1` [Doxorubicin, reference compound], the GI50 [2, 5] was 0.05 µM, the CC50 [2, 6] was 0.88 µM and the IC (TGI) ([2]; tumor growth inhibition) was 0.41 µM. For the same compound, the GI50 ([3]; HepG2) was 0.01 µM, the IC (TGI) [3, 8] was 0.13 µM and the GI50 ([4]; MCF7, MCF-7) was 0.02 µM. For the same compound, the CC50 [4, 9] was 0.74 µM and the IC (TGI) ([4]; MCF7, MCF-7) was 0.21 µM.
